ChEMBL document CHEMBL3390844, “Development of substituted 7-phenyl-4-aminobenzothieno[3,2-d] pyrimidines as potent LIMK1 inhibitors” (Medchemcomm, 2011)
≈ marks a conversion by molar mass, not a printed value.

What was measured:
[1] = Solubility of the compound in 0.01 M HCl at pH 2 by nephelometry; assay type: physicochemical
LIM domain kinase 1 [2] = target: T1, LIM domain kinase 1 (Homo sapiens, UniProt P53667); test: Inhibition of LIMK1 (unknown origin) assessed as ADP formation using cofilin-2 protein as substrate measured after 60 mins incubation with enzyme by Transcreener assay
CYP1A2 = target: T2, CYP1A2 (Homo sapiens, UniProt P05177); test: Inhibition of CYP1A2 in human liver microsomes assessed as reduction in apparent rate of formation of metabolites using phenacetin as substrate at 20 uM by LC-MS analysis; assay type: ADME; conditions: probe phenacetin
T2 sequence (P05177 whole entry): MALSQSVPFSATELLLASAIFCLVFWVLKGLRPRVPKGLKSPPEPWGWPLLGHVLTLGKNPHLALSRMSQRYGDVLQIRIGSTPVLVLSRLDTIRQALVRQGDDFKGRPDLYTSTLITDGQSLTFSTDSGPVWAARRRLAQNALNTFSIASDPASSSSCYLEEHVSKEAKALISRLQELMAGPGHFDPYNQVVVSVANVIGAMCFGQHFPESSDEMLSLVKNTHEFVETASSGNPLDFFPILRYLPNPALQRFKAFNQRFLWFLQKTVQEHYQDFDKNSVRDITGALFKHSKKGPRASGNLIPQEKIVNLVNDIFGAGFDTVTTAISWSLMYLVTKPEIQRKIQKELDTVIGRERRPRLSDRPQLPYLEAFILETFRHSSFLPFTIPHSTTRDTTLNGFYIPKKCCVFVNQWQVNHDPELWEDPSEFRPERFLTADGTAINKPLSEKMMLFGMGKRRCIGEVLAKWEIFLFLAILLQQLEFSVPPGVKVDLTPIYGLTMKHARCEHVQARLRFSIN

[3] = Partition coefficient, log D of the compound at pH 7.4 by HPLC analysis; assay type: physicochemical; conditions: octanol/water
hERG (KCNH2) = hERG (KCNH2) (Homo sapiens, UniProt Q12809); test: Inhibition of human ERG at 10 uM by fluorescence polarization assay
[4] = target: Tyrosine-protein kinase JAK2 (Homo sapiens) (UniProt O60674); test: Inhibition of JAK2 (unknown origin) at 1 uM
[5] = In vitro intrinsic clearance in mouse liver microsomes at 1 uM by LC-MS analysis; assay type: ADME; conditions: read-out: CLH
[6] = target: Rho-associated protein kinase 2 (Homo sapiens) (UniProt O75116); test: Inhibition of ROCK2 (unknown origin) at 1 uM
[7] = target: Tyrosine-protein kinase JAK1 (Homo sapiens) (UniProt P23458); test: Inhibition of JAK1 (unknown origin) at 1 uM
CYP3A4 = CYP3A4 (Homo sapiens, UniProt P08684); test: Inhibition of CYP3A4 in human liver microsomes assessed as reduction in apparent rate of formation of metabolites using midazolam or testosterone as substrate at 20 uM by LC-MS analysis; assay type: ADME; conditions: probe midazolam or testosterone
[8] = Solubility of the compound in phosphate buffer at pH 6.5 by nephelometry; assay type: physicochemical
[9] = target: T3, Tyrosine-protein kinase JAK3 (Homo sapiens) (UniProt P52333); test: Inhibition of JAK3 (unknown origin) at 1 uM
T3 sequence (whole entry): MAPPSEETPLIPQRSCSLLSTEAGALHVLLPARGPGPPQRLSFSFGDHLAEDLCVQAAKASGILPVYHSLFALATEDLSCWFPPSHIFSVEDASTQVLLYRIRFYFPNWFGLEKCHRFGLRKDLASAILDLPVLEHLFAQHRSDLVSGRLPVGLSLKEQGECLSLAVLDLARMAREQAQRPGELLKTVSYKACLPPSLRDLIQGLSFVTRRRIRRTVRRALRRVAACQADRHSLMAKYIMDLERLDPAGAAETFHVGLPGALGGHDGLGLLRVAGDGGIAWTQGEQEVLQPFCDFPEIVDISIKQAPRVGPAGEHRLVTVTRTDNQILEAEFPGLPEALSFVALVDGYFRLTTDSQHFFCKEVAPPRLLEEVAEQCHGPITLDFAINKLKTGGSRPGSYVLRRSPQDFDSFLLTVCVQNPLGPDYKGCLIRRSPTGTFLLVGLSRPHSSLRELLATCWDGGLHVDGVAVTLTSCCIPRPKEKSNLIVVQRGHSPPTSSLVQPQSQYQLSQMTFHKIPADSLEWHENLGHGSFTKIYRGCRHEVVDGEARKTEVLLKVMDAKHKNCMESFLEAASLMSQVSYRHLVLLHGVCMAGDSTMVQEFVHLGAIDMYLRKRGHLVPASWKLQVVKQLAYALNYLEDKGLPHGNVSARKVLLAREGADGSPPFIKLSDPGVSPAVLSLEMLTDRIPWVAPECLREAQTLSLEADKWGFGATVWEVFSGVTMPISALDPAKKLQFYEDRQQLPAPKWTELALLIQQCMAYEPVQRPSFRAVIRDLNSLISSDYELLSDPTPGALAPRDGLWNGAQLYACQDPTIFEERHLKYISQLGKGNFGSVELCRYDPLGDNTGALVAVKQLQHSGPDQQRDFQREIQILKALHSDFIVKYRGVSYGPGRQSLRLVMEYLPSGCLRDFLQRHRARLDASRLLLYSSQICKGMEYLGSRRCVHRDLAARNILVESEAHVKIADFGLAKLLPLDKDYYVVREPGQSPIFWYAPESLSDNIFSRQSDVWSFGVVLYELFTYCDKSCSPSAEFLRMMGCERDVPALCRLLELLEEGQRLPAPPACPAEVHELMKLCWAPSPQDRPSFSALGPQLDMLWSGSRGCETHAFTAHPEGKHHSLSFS

[10] = target: Proto-oncogene tyrosine-protein kinase Src (Homo sapiens) (UniProt P12931); test: Inhibition of Src (unknown origin) at 1 uM
[11] = Plasma protein binding in human by LC-MS analysis; assay type: ADME, cell-free; conditions: read-out: PPB (converted)
[12] = target: Serine/threonine-protein kinase PAK 4 (Homo sapiens) (UniProt O96013); test: Inhibition of PAK4 (unknown origin) at 1 uM
[13] = target: Tyrosine-protein kinase Lck (Homo sapiens) (UniProt P06239); test: Inhibition of Lck (unknown origin) at 1 uM
LIM domain kinase 1 [14] = target: T1, LIM domain kinase 1; test: Inhibition of LIMK1-catalyzed cofilin phosphorylation in human ZR-75-1 cells; assay type: cell-based
[15] = target: Serine/threonine-protein kinase PAK 1 (Homo sapiens) (UniProt Q13153); test: Inhibition of PAK1 (unknown origin) at 1 uM
[16] = In vitro intrinsic clearance in human liver microsomes at 1 uM by LC-MS analysis; assay type: ADME; conditions: read-out: CLH
LIM domain kinase 2 = LIM domain kinase 2 (Homo sapiens, UniProt P53671); test: Inhibition of LIMK2 (unknown origin)
CYP2D6 (Homo sapiens) = test: Inhibition of CYP2D6 in human liver microsomes assessed as reduction in apparent rate of formation of metabolites using dextromethorphan as substrate at 20 uM by LC-MS analysis; conditions: probe dextromethorphan

Serine/threonine-protein kinase PAK 1 (Homo sapiens), sequence (Q13153 whole entry): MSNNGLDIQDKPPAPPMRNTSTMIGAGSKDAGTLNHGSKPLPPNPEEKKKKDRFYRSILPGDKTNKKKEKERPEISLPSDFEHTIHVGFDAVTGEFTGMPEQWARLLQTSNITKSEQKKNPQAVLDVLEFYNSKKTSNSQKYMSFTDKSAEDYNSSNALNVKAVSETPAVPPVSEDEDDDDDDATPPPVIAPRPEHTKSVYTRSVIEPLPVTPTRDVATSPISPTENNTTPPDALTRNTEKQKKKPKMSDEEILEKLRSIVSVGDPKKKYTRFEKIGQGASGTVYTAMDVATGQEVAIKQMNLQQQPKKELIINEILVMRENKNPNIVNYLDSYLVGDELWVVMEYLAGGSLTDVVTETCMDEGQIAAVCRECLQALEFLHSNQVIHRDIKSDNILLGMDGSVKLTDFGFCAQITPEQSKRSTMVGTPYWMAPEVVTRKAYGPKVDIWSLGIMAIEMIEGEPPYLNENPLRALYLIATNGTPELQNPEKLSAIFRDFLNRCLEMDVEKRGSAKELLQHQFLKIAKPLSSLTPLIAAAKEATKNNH
CYP3A4, sequence (P08684 whole entry): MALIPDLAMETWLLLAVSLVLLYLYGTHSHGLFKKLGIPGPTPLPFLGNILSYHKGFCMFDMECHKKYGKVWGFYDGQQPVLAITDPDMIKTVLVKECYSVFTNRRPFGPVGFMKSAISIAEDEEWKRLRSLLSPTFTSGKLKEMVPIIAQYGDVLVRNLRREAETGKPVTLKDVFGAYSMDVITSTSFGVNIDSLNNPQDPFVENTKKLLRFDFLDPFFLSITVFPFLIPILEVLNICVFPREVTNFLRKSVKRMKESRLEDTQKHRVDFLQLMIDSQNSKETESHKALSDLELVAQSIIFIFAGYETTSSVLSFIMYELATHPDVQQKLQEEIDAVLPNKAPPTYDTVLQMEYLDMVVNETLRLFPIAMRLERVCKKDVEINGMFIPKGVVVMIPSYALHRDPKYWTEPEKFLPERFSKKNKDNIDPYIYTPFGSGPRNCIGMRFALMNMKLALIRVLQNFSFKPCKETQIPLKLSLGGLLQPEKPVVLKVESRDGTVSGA
Serine/threonine-protein kinase PAK 4 (Homo sapiens), sequence (O96013 whole entry, looked up): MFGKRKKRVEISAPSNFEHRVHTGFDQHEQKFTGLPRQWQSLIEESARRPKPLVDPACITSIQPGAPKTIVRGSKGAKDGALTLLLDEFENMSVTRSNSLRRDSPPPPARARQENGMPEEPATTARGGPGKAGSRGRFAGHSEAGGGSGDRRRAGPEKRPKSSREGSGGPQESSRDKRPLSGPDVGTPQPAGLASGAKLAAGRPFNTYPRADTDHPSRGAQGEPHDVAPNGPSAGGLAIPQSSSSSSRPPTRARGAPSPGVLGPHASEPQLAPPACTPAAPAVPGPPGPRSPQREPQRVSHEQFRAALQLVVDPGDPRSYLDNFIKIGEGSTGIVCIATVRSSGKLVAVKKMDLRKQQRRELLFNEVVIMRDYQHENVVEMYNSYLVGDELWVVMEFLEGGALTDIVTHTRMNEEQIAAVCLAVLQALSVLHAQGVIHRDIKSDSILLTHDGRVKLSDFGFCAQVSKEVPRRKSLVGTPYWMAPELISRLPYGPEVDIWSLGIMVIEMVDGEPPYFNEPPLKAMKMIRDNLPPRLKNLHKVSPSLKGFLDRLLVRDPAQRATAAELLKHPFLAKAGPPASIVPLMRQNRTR
Proto-oncogene tyrosine-protein kinase Src (Homo sapiens), sequence (P12931 2-536 limits assumed): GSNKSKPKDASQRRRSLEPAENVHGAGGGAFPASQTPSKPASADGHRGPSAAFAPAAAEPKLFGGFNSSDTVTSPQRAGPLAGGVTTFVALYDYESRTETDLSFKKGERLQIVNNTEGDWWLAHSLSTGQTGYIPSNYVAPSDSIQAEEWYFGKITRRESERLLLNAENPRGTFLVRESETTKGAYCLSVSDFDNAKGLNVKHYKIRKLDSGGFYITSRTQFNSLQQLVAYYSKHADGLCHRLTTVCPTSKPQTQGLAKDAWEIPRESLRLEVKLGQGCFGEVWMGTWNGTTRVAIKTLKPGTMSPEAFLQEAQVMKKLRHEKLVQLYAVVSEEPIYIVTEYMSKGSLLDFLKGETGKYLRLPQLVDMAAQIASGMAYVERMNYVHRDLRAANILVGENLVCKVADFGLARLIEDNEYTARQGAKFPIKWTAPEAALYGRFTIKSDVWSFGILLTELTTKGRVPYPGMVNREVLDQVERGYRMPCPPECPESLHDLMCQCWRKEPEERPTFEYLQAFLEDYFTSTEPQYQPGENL
Tyrosine-protein kinase JAK2 (Homo sapiens), sequence (O60674 whole entry): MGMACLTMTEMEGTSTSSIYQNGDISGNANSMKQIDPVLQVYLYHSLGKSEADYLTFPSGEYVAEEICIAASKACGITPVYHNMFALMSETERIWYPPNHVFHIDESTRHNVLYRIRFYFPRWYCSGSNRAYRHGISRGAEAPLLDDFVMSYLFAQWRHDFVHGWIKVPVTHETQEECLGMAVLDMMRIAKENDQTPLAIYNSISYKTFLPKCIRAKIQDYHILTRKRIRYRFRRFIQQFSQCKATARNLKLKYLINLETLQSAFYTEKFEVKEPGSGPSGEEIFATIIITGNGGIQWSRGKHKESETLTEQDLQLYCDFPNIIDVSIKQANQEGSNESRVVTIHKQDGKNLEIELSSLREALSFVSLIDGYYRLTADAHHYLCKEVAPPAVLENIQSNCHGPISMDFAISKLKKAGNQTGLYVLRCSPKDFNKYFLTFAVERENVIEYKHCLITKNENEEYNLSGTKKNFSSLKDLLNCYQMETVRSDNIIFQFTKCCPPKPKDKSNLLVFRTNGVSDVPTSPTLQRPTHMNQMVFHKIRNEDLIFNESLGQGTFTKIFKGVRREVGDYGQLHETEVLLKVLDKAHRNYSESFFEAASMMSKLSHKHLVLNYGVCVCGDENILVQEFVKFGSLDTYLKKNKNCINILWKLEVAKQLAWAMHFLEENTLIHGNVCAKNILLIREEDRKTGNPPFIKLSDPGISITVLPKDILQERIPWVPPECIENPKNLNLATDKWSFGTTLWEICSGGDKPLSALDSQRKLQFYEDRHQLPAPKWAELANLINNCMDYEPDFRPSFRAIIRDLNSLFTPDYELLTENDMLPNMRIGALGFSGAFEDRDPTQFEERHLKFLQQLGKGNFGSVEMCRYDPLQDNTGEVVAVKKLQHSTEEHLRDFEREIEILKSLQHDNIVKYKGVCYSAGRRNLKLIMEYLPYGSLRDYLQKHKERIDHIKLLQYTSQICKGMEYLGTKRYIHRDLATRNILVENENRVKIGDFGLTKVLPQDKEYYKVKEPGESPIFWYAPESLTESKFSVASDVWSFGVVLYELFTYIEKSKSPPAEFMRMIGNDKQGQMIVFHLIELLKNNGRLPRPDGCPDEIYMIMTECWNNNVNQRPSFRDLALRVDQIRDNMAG
Tyrosine-protein kinase Lck (Homo sapiens), sequence (P06239 2-509 limits assumed): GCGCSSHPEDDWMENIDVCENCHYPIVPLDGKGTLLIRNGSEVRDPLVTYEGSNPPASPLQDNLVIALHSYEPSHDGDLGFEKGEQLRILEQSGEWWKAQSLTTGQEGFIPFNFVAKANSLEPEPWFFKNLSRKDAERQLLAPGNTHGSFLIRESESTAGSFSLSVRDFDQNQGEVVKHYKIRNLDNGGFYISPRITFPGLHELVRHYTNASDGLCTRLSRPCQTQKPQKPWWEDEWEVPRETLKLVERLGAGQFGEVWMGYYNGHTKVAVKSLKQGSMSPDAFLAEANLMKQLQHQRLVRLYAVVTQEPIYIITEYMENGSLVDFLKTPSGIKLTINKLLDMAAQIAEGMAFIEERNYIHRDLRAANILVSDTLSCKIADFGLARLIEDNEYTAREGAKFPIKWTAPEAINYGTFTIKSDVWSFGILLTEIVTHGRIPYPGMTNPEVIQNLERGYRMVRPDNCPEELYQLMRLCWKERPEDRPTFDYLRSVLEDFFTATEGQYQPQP
LIM domain kinase 2, sequence (P53671 whole entry, the tested form may be a part): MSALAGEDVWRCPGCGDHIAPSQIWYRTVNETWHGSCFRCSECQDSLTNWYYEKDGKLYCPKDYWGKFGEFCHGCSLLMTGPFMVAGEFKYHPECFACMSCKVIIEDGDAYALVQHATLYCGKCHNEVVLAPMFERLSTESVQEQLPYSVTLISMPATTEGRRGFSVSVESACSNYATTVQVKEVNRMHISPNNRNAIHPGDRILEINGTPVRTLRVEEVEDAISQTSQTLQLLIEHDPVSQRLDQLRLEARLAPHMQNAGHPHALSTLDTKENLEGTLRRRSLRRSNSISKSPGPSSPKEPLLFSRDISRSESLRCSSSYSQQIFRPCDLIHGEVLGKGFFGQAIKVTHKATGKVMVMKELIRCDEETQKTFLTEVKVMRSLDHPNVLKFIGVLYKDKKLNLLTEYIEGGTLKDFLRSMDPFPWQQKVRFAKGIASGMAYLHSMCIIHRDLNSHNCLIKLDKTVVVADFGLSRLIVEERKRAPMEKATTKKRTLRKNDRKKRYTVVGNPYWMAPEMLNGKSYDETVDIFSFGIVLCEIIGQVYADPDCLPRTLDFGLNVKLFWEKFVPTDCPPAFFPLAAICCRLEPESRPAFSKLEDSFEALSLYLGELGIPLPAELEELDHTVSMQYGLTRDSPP

| solubility kinetic [1] [µg/mL] | IC50 (LIM domain kinase 1 [2]) [µM] | inhibition at 20 µM (CYP1A2) [%] | logD [3] | inhibition [4] [%] | microsomal CLint at 1 µM [5] [µL/min/mg] | inhibition [6] [%] | inhibition [7] [%] | inhibition at 20 µM (CYP3A4) [%] | solubility kinetic [8] [µg/mL] | inhibition [9] [%] | inhibition [10] [%] | fraction unbound [11] | inhibition [12] [%] | inhibition [13] [%] | IC50 (LIM domain kinase 1 [14]) [µM] | inhibition [15] [%] | microsomal CLint at 1 µM [16] [µL/min/mg] | IC50 (LIM domain kinase 2) [µM] | SMILES | inhibition at 10 µM (hERG (KCNH2)) [%] | further results |
| --- | --- | --- | --- | --- | --- | --- | --- | --- | --- | --- | --- | --- | --- | --- | --- | --- | --- | --- | --- | --- | --- |
| 50 (≈ 112 µM) | 0.081 | 17 | 2.1 | 97 | < 6 | 18 | 31 | 70 | 6.3 (≈ 14.1 µM) | 65 | 45 | 0.053 | 0 | 97 | 1.4 | 23 | 68 | – | Nc1ncnc2c1sc1cc(-c3cccc(C(=O)NCC(=O)N4CCOCC4)c3)ccc12 | 0 | – |
| 50 (≈ 128 µM) | 0.095 | 28 | 2.8 | 95 | 56 | 10 | 13 | 82 | 3.1 (≈ 7.96 µM) | 56 | 60 | – | 7 | 71 | 2.4 | 0 | 77 | 0.103 | Nc1ncnc2c1sc1cc(-c3cccc(NC(=O)N4CCCC4)c3)ccc12 | 0 | inhibition at 20 µM (CYP2D6 (Homo sapiens)): 9% |
| > 100 | 0.095 | 11 | 2.5 | 88 | 27 | 24 | 25 | 82 | 12.5 (≈ 29.9 µM) | 53 | 71 | 0.037 | 0 | 75 | 1.6 | 33 | 165 | 0.157 | CN1CCN(C(=O)Nc2cccc(-c3ccc4c(c3)sc3c(N)ncnc34)c2)CC1 | 27 | inhibition at 20 µM (CYP2D6 (Homo sapiens)): 12% |
| 50 (≈ 118 µM) | 0.097 | 13 | 2.7 | 98 | 111 | 13 | 31 | 99 | < 1.6 | 60 | 23 | 0.014 | 13 | 85 | 4.1 | 8 | 116 | 0.133 | Nc1ncnc2c1sc1cc(-c3cccc(C(=O)NCCc4cccnc4)c3)ccc12 | 11 | inhibition at 20 µM (CYP2D6 (Homo sapiens)): 74% |
